Here are results for five compounds from patent US20240304334A1, “CLOTTABILITY-BASED PERSONALIZED TREATMENT (CPT) SYSTEM” (priority 2021, published 2024).

For data set [1], the system named is fibrinogen and fibrin-derivatives. The experiment in a line: CCT before and after anticoagulant in healthy volunteers. In kind it is in vivo, human. The following applies: 6 healthy volunteers; for CCT average after treatment: 3 hrs after last intake, rivaroxaban 15 mg twice daily 2.5 days, apixaban 10 mg twice daily 3.5 days; for CCT average before treatment: just before anticoagulant intake; for difference in CCT after vs before treatment: not statistical significant. The method, then:
The skilled person is aware of how to perform the CCT test. Thus, as an example, Multifibren-U from Siemens and/or HemoslL Fibrinogen-C from IL/Werfen can be used. Moreover, it is known that the CCT test can show a higher fibrinogen concentration than the actual concentration due to enhanced clotting efficiency by the pro-coagulable factors due to the thrombin activity. […] In such study, rivaroxaban study was performed on 6 healthy volunteers, with ages between 18-50 years. They fulfilled the criteria of normal vital signs and lab screening tests for infection, hematology and coagulation, and had no abnormalities at physical examination. They were given 15 mg rivaroxaban twice daily for 2.5 days. The dosage of twice-daily 15 mg was chosen as it is the highest approved dosage for the initial treatment of acute venous thromboembolism (VTE). The apixaban study was performed on another 6 healthy volunteers, with the same health profile requirements as rivaroxaban study. These 6 volunteers were given 10 mg apixaban twice daily for 3.5 days. Blood samples were drawn just before anticoagulants intake and 3 hrs after the last intake. Measurement of fibrinogen was in duplicate.

A further data set relates to coagulation pathway. As to the kind of experiment: Clottability test (CCT minus TFT) in plasma of patients on anticoagulants, clinical study C. The settings on record: individual patient plasma, single time point, on anticoagulant. The class given is in vivo, human. The method, then: For determination of the clottability of blood, combined clottability assays were performed using a (a) clot-based and (b) enzyme-based fibrinogen test. The information provided by the assay is whether the blood is normal-clottable, hyperclottable, or hypoclottable by measuring fibrinogen concentration in blood plasma.
To estimate the clotting dynamics, […]. Thus, clottability is determined by […] (clottability=CCT−TFT). Exemplary, high values after subtraction of the obtained concentrations of the tests indicate high amounts of pro-coagulable factors and thus increased thrombin activity. Therefore, the greater the in vivo thrombin activation, the higher the obtained values from the clottability test. This leads to the finding that high values relate to an increased clottability.
The skilled person is aware of how to perform the CCT test. Thus, as an example, Multifibren-U from Siemens and/or HemoslL Fibrinogen-C from IL/Werfen can be used. Moreover, it is known that the CCT test can show a higher fibrinogen concentration than the actual concentration due to enhanced clotting efficiency by the pro-coagulable factors due to the thrombin activity. […]

The conditions of data set [2]: human, in vivo.
Description: Plasma samples from 19 patients were tested to investigate the coagulation pathway activity using the clottability test (CCT and TFT) and D-dimer test. These patients were receiving various anticoagulant drugs, such as rivaroxaban, apixaban, edoxaban, dabigatran, or argatroban, and the drug concentrations of each individual were determined. The aim of the study was to examine the activity of the coagulation pathway by means of both, the clottability test and D-dimer test in relation to the determined drug concentration in the plasma.
For data set [3] the following is noted: co-administering Rifampicin (P-glycoprotein inducer); cited from earlier work.
Another data set has as its system coagulation system. As to the kind of experiment: PT and INR in AECOPD patients. In kind it is in vivo, human. The source says: (§1) This is again another example how anticoagulant treatment reduces pathological in vivo thrombin generation with the concomitant reduction of fibrin-derivatives detectable by CCT. This example is a highly prevalent (>10%) progressive chronic disease, which has strong clinical manifestations of immune and coagulation systems. Chronic obstructive pulmonary disease (COPD) is an inflammatory lung disease that affects respiratory function with concomitant high thrombosis risk. In this example, study subjects were the 70 patients diagnosed with COPD and developed acute exacerbation form of COPD (AECOPD). On top of the standard AECOPD treatments e.g. anti-infection, bronchodilation, phlegm elimination, and oxygen treatment, etc, 32 of these AECOPD patients received no additional treatment and the other 38 of them were treated with low molecular weight heparin calcium (LMWH, 4100 IU anti-FXa/injection every 12 hrs, for 10 days).
(§2) Treatment efficacy was evaluated based on several parameters: pulmonary function, blood gas analysis and coagulation parameters. All this information were obtained before and after the LMWH anticoagulant treatment, the same for the control group. The pulmonary function was measured with several methods, such as FEV1 (measurement of forced expiratory volume in 1 sec after bronchodilator was inhaled) and FVC (forced vital capacity, and the ratio of FEV/FVC in % as clinical signs of respiratory performance). Blood gas analysis was obtained by measuring oxygen saturation of blood (SO2), partial pressure of oxygen (PO2) and partial pressure of carbon dioxide (PCO2). Several blood coagulation parameters were measured; they are CCT, DD, PT-INR.

For data set [4], the system named is AECOPD patients. As to the kind of experiment: Pulmonary function in AECOPD patients. In kind it is in vivo, human.
Text: as §1, §2

Another data set relates to D-dimer. The experiment in a line: DD in AECOPD patients. The class given is in vivo, human.
Text: as §1
(§3) Treatment efficacy was evaluated based on several parameters: pulmonary function, blood gas analysis and coagulation parameters. […] The pulmonary function was measured with several methods, such as FEV1 (measurement of forced expiratory volume in 1 sec after bronchodilator was inhaled) and FVC (forced vital capacity, and the ratio of FEV/FVC in % as clinical signs of respiratory performance). […] Several blood coagulation parameters were measured; they are CCT, DD, PT-INR.

Data set [5] relates to fibrinogen and fibrin-derivatives. As to the kind of experiment: CCT in AECOPD patients. In kind it is in vivo, human.
Text: as §1, §3

The subject of data set [6] is AECOPD patients. The experiment in a line: Blood gas analysis in AECOPD patients. The following applies: for PCO2 / SO2: AECOPD. In kind it is in vivo, human.
Text: as §1, §2

Data set [7] deals with patients with acute cerebral infarction (ACI). As to the kind of experiment: Neurological assessment (NIHSS) in acute cerebral infarction patients. The following applies: ACI patients n=35, 2 weeks, plus aspirin 100 mg/day. In kind it is in vivo, human. How it is done:
(§4) Seventy patients who had complete clinical record and were diagnosed with acute cerebral infarction (ACI), either validated by CT or MRI, were included into this study. They have to be the first time patients of ACI and the disease onset should be shorter than 72 hours, and the cause of the cerebral infarction was cardiac origin, and they were without abnormal renal function, without bleeding history and hemostatic abnormality. These 70 patients were divided into 2 groups, 35 in control group and the other 35 in observational group. The control group patients were treated with rivaroxaban (anticoagulant), while observational group patients were treated combined rivaroxaban and sodium ozagrel (anti-platelet). Sodium ozagrel inhibits platelet activation and aggregation through specific inhibition of thromboxane (TX) synthetase. Due to the inhibitory effect of ozagrel on platelet activation, platelets cease to become the main lipid surface of thrombin generation. Beside standard treatment such as enriched oxygen supply, etc, all 70 patients were treated with aspirin 100 mg/tablet/day. Additionally, the control and observational groups were given rivaroxaban 15 mg/tablet/day. On top of rivaroxaban, the observational group received intravenously and daily 80 mg of ozagrel sodium in 500 mL glucose (5%) solution. Everyone was treated for 2 weeks. Both groups have very similar age mean and range (40-70 years). After 2 weeks of treatment, clinical efficacy (neurological assessments), coagulation lab tests (only CCT is shown) and GCS scores of the two groups were compared. Neurological […] according to NIH stroke scale (NIHSS). When NIHSS score reduces ≥90%, the disability classification is grade 0, and the treatment is highly efficacious. When NIHSS score reduces to between 46% and 89%, the disability classification is grade 1 to 3, the treatment is considered efficacious. The treatment is no efficacious, when the score is below 46%.

The test system is the same in data set [8]. The experiment in a line: Glasgow coma score (GCS) in acute cerebral infarction patients. The class given is in vivo, human. How it is done:
Seventy patients who had complete clinical record and were diagnosed with acute cerebral infarction (ACI), either validated by CT or MRI, were included into this study. They have to be the first time patients of ACI and the disease onset should be shorter than 72 hours, and the cause of the cerebral infarction was cardiac origin, and they were without abnormal renal function, without bleeding history and hemostatic abnormality. These 70 patients were divided into 2 groups, 35 in control group and the other 35 in observational group. The control group patients were treated with rivaroxaban (anticoagulant), while observational group patients were treated combined rivaroxaban and sodium ozagrel (anti-platelet). Sodium ozagrel inhibits platelet activation and aggregation through specific inhibition of thromboxane (TX) synthetase. Due to the inhibitory effect of ozagrel on platelet activation, platelets cease to become the main lipid surface of thrombin generation. Beside standard treatment such as enriched oxygen supply, etc, all 70 patients were treated with aspirin 100 mg/tablet/day. Additionally, the control and observational groups were given rivaroxaban 15 mg/tablet/day. On top of rivaroxaban, the observational group received intravenously and daily 80 mg of ozagrel sodium in 500 mL glucose (5%) solution. Everyone was treated for 2 weeks. Both groups have very similar age mean and range (40-70 years). The coma assessment was carried out before and after treatment on all subjects, based on Glasgow coma score (GCS) scoring system, which has 15 as full score. The degree of coma is lighter and is reflected with higher score. The recovery based on GCS is summarized in Table 4, together with CCT results.

The next data set concerns Fibrin(ogen). As to the kind of experiment: CCT in acute cerebral infarction patients. The class given is in vivo, human. The settings on record: ACI patients. How it is done: as §4

Several values for one entry are separate records, joined by “and”; a condition that tells them apart may be missing. Identical values can stand only once.

As for `COc1ccc(-n2nc(C(N)=O)c3c2C(=O)N(c2ccc(N4CCCCC4=O)cc2)CC3)cc1` [apixaban], in [1], the “CCT average after treatment” value is given as 2.38, the “CCT average before treatment” value is on record as 2.56 and the “difference in CCT after vs before treatment” value is reported as −0.18. Besides, the Clottability test in the data set with coagulation pathway is > 1.5 g/L and 2.7 g/L and 0.8 g/L and 1.8 g/L.
With `CC1CNc2c(cccc2S(=O)(=O)N[C@@H](CCCNC(=N)N)C(=O)N2CC[C@@H](C)C[C@@H]2C(=O)O)C1` (stereo partly drawn) [argatroban], the PK profile result in data set [2] is “bottom”.
With `[H]/N=C(/N)c1ccc(NCc2nc3cc(C(=O)N(CCC(=O)O)c4ccccn4)ccc3n2C)cc1` [dabigatran], in [3], the “decrease of maximum plasma concentration of dabigatran” value was “approximately 67%”.
Consider “low molecular weight heparin calcium [LMWH]”, for which the INR is 1.36 in the data set with coagulation system (after treatment) and 0.87 in the data set on coagulation system (before treatment). Moreover, the PT in the data set with coagulation system (after treatment) was 13.7; with coagulation system (before treatment), 9.6. Further, the FEV1 came out at 1.89 L with AECOPD patients [4] (after treatment) and 1.36 L in the data set with AECOPD patients [4] (before treatment). The FEV1/FVC in the data set with AECOPD patients [4] (after treatment) was 78.4%; in the data set on AECOPD patients [4] (before treatment), 62.3%. In addition, the DD amounted to 237.4 µg/L with D-dimer (after treatment) and 482.8 µg/L in the data set on D-dimer (before treatment). The CCT is 2.16 in data set [5] (after treatment) and 3.97 in data set [5] (before treatment). Besides, the PO2 was determined as 78.4 mmHg in the data set on AECOPD patients [6] (AECOPD patients n=38, after 10 days LMWH plus standard treatment) and 71.5 mmHg in the data set on AECOPD patients [6] (AECOPD patients n=38, before treatment). Also, the PCO2 is listed as 41.9 mmHg with AECOPD patients [6] (after treatment) and 52.2 mmHg in the data set with AECOPD patients [6] (before treatment). The figures for the SO2 in the data set with AECOPD patients [6] (after treatment) and in the data set with AECOPD patients [6] (before treatment) were 98.6% and 90.8%, respectively.
`O=C(NC[C@H]1CN(c2ccc(N3CCOCC3=O)cc2)C(=O)O1)c1ccc(Cl)s1` [rivaroxaban]: in data set [1], the “CCT average after treatment” value came to 2.64, the “CCT average before treatment” value is on record as 2.75 and the “difference in CCT after vs before treatment” value is reported as −0.11. Besides, in the data set on coagulation pathway, the Clottability test was > 1.5 g/L and 1.7 g/L and -0.5 g/L and 0.6 g/L and 2 g/L. Besides, in data set [7], the “efficacious (NIHSS reduction 46% to 89%), number of patients” value turned out to be 8; the “efficacious (NIHSS), share of patients” value was “(22.9%)”; the “highly efficacious (NIHSS score reduces ≥90%), number of patients” value worked out at 16; the “highly efficacious (NIHSS), share of patients” value is given as “(45.7%)”. Also, in [7], the “non-efficacious (NIHSS below 46%), number of patients” value was 11; the “non-efficacious (NIHSS), share of patients” value was “(31.4%)”; the “total efficacious (NIHSS), number of patients” value was 24; the “total efficacious (NIHSS), share of patients” value was 68.6%. Besides, the GCS score in [8] (T0 before treatment) came out at 6.8 ± 1.11. Also, the GCS score in data set [8] (T1 after 2 weeks of treatment) is recorded as 9.07 ± 1.92. Moreover, in [8] (T1 vs T0), the “GCS score, difference in mean” value is listed as 2.27. Moreover, the “Fibrin(ogen) CCT” value with Fibrin(ogen) (T0 before treatment) is reported as 3.93 ± 1.49. Besides, the “Fibrin(ogen) CCT” value in the data set on Fibrin(ogen) (T1 after 2 weeks of treatment) came to 3.15 ± 1.12. Further, the “Fibrin(ogen) CCT, difference in mean” value in the data set with Fibrin(ogen) (T1 vs T0) is recorded as −0.78.
